Test results: paper PMC6127857 (Journal of structural biology, 2018)

Experiments:
AmpKR2 [1] = target: AmpKR2 (Streptomyces nodosus, UniProt Q93NW7, G2883T/Q2892H); assay: X-ray crystal structure, […] Å, co-crystallised; format: binding; conditions: ternary complex with 2-methyl-3-oxopentanoyl-pantetheine; 3 mM NADP+
AmpKR2 [2] = target: AmpKR2 (Streptomyces nodosus, UniProt Q93NW7); assay: X-ray crystal structure, […] Å, co-crystallised; format: binding; conditions: ternary complex with 2-methyl-3-oxopentanoyl-pantetheine; 3 mM NADP+

Which results are given for `NC(=O)c1ccc[n+]([C@@H]2O[C@H](COP(=O)(O)OP(=O)(O)OC[C@H]3O[C@@H](n4cnc5c(N)ncnc54)[C@H](OP(=O)(O)O)[C@@H]3O)[C@@H](O)[C@H]2O)c1` [NADP^+]?
X-ray crystal structure, 1.96 Å, co-crystallised (AmpKR2 [1]): both wild type AmpKR2 and its G355T/Q364H mutant; X-ray crystal structure, 1.80 Å, co-crystallised (AmpKR2 [2]): well-defined electron density for NADP^+ and 2-methyl-3-oxopentanoyl-pantetheine was observed in the active sites
